Experimental findings from patent publication US10407445B2, “Hepatitis C virus inhibitors” (ENANTA PHARMACEUTICALS, INC., priority 2013, dated 2019) are described below.

As usually defined, the EC50 is the concentration giving half of the maximal effect. Higher therefore signals lower potency in that assay.

Common to all, as to type: cell-based
Holding throughout (conditions): Hepatitis C virus

The test system of one experiment is GT3a-S52 replicon. In words: Stable replicon assay, comparison to daclatasvir, GT3a-S52. From the text:
The GT3a-S52 replicon plasmid pSGRlucneo-GT3a-S52-HDVR-(ISH) was synthesized by Genscript. This plasmid encodes a GT3a (strain S52, accession GU814264) bicistronic subgenomic replicon encoding the hRluc-Neo reporter gene in the first cistron and NS3-NS5B, driven by an encephalomyocarditis virus (EMCV) internal ribosome entry site (IRES), in the second cistron. The hepatitis delta ribozyme (HDVR) was included after the HCV 3′ NTR followed by a unique SpeI restriction site for linearization. This replicon encodes three cell culture adaptive mutations, P1226S (NS3), D1437H (NS3), and S2210I (NS5A), as described previously (Saeed et al 2012 Antimicrob. Agents Chemother. 54: 1878-1887). The GT4a-ED43 replicon plasmid pSGRlucneo-GT4a-ED43-HDVR-(KG) was synthesized by Genscript. […]
(§1) Stable HCV replicon cell lines were grown in complete media (Dulbecco's modified Eagle medium [DMEM], 2 mM L-glutamine, 0.1 mM essential amino acids, 1 mM sodium pyruvate, 10% fetal bovine serum) with the addition 500 μg/ml […] (G418). […] For stable and transient replicon assays, luciferase activity of compound-treated cells was measured relative to DMSO-treated cells after 72 h incubation using RENILLA-GLO™ Luciferase Assay (Promega). […]

For experiment [1], the system named is HCV genotype 1a replicon, NS5A K24R. The experiment in a line: Transient replication assay, GT1a NS5A K24R.
A further experiment deals with GT2a-JFH replicon. The experiment in a line: Stable replicon assay, comparison to daclatasvir, GT2a-JFH.
Description: The plasmid pSG-hRlucNeo-JFH1 was generated from pSG-Neo-JFH1 (Kato et al. 2003, Gastroentrology 125:1808-1817). A fragment containing the JFH-1 5′ NTR-hRluc-Neo gene and two unique restriction sites (AgeI and PmeI) was synthesized (Integrated DNA Technologies, Coralville, Iowa). The resulting plasmid was digested with AgeI and PmeI and the excised fragment (5′NTR-hRluc-Neo) was ligated into pSG-Neo-JFH1 digested with the same enzymes to generate pSG-hRlucNeo-JFH1. To allow expression of heterologous NS5A sequences, an NS5A shuttle vector was generated from pSG-Neo-JFH1, in which the entire coding sequence of NS5A plus the first eight codons of NS5B were replaced with an AfeI restriction site. This was done by Infusion cloning (Clontech, Mountain View, Calif.) from two PCR products that were generated using pSG-Neo-JFH1 as a template and the following primer pairs: […]
as §1

In experiment [2] the test system is HCV genotype 1a replicon, NS5A P32L. In words: Transient replication assay, GT1a NS5A P32L.
For experiment [3], the system named is HCV genotype 1a replicon, NS5A M28V Y93C. In words: Transient replication assay, GT1a NS5A M28V Y93C.

The structures appear in SMILES notation.

Take `COC(=O)N[C@H](C(=O)N1C[C@]2(CCCOC2)C[C@H]1c1ncc(-c2ccc(-c3ccc4c(ccc5nc([C@@H]6C[C@@H]7CCC[C@@H]7N6C(=O)[C@@H](NC(=O)OC)C(C)C)[nH]c54)c3)cc2)[nH]1)C(C)C` [Compound 16]: the 50% effective concentration (EC50) with GT3a-S52 replicon turned out to be 4.7 nM; in experiment [1] it was 0.0012 nM; with GT2a-JFH replicon it was 0.004 nM; in experiment [2], 0.046 nM; in experiment [3], 1 nM.
In the case of `COC(=O)N[C@H](C(=O)N1CCC[C@H]1c1nc(-c2ccc(-c3ccc(-c4c[nH]c([C@@H]5CCCN5C(=O)[C@@H](NC(=O)OC)C(C)C)n4)cc3)cc2)c[nH]1)C(C)C` [Daclatasvir, reference compound], the half-maximal effective concentration (EC50) in the experiment on GT3a-S52 replicon is 1.2 nM; in experiment [1], 0.011 nM; in the experiment with GT2a-JFH replicon, 0.008 nM; in experiment [2], 1.9 nM; in experiment [3], 3.5 nM.
